Results taken from US9795677B2, “Method for reducing damage caused by free radicals” (Original BioMedicals Co., Ltd, priority 2012, dated 2017).

Columns and labels:
[1] = tested on: mouse embryonic liver cells (BNLCL.2); assay: Comet Assay of UV-irradiated cells (DNA damage); assay type: cell-based; conditions: BNLCL.2 cells, UVB 100 J·m-2; treatment given 30 minutes or 2 hr before UV irradiation; API and FeP 40 folds, FePA 20 folds dilution with PBS
Experimental: UV irradiation of the cells was used in this experiment to simulate the effects of radiation on normal cells, and the results were evaluated by Comet Assay. Comet Assay is a fast, sensitive and convenient method for examining DNA damage and is widely used in studying DNA damage caused by radiation, examining DNA crosslink, evaluating genotoxicity of drugs and identifying cell apoptosis, etc. […]
The mouse embryonic liver cells (BNLCL.2) were inoculated onto a 35 mm culture dish at the density of 3*10^5 cell/mL and cultured for at least 20 hours before subjected to the test. […] The treated cells were then collected with a scraper, counted, and centrifuged at 1,200 rpm for 5 minutes. […]
The bottle containing LM agarose was placed in 95° C. water for 5 minutes with loosed cap and then transferred to a 37° C. water bath for at least 20 minutes. […] The resulting images were analyzed using the epifluorescence microscope (the maximum excitation and emission wavelength of SYBR®Green I are 494 nm and 521 nm, respectively.) The fluorescence filter was also adjusted accordingly for efficient lighting) 200×.

NMRI mice = assay: Acute radiation protection in irradiated mice (WBC number); assay type: in vivo, mouse; conditions: 8Gy; amifostine 6.25 mg/kg i.v. 30 min before irradiation; 30 days after treatment
Experimental: Efficacy Result: In animal study, 30-day old NMRI mice weighing 20 to 30 g were tested for acute radiation protection. For radiation control group, mice were given 1, 4, and 8 Gy irradiation in 10 minutes, and for the standard treatment group, FDA-approved amifostine (6.25 mg/kg) was injected intravenously, and 30 minutes later the animals were given 8 Gy irradiation in 10 minutes. The 30 mins duration design is based on the short half-life of amifostine. A-01 indicates FePA with a formulation ratio of PEG-b-PGA:FeCl2.4H2O:amifostine=4:1:1 (w:w:w). The animals in the test group A-01 were administered intravenously with 37.5 mg/kg A-01 (containing the same amount of amifostine as used in the standard treatment group), and 120 minutes post injection, the animals were given 8 Gy radiation in 10 minutes. WBC number and survival rates were analyzed 30 days after treatment.

[2] = cited from earlier work

Structure (SMILES): NCCCNCCSP(=O)(O)O [Amifostine]
- average percentage of damaged DNA in the tail of the Comet (% TDNA) compared with the positive control group (UV) [1]: significantly reduced
- WBC (NMRI mice): 3.04-3.80 1000/cm^3
- amifostine remaining after i.v. injection ([2]; 6 minutes after i.v. injection): 10%
- distribution half-life ([2]; patients): less than 1 minute
- elimination half-life ([2]; patients): 8 min
